From patent US9150592B2, “Heterocyclic nuclear hormone receptor modulators” (AbbVie Inc., priority 2012, dated 2015)
pIC50: −log10 of the molar value.

Target: T1, Glucocorticoid Receptor (GR) (Homo sapiens, UniProt P04150)
T1 construct: purchased Invitrogen P2893
T1 sequence (P04150 1-777): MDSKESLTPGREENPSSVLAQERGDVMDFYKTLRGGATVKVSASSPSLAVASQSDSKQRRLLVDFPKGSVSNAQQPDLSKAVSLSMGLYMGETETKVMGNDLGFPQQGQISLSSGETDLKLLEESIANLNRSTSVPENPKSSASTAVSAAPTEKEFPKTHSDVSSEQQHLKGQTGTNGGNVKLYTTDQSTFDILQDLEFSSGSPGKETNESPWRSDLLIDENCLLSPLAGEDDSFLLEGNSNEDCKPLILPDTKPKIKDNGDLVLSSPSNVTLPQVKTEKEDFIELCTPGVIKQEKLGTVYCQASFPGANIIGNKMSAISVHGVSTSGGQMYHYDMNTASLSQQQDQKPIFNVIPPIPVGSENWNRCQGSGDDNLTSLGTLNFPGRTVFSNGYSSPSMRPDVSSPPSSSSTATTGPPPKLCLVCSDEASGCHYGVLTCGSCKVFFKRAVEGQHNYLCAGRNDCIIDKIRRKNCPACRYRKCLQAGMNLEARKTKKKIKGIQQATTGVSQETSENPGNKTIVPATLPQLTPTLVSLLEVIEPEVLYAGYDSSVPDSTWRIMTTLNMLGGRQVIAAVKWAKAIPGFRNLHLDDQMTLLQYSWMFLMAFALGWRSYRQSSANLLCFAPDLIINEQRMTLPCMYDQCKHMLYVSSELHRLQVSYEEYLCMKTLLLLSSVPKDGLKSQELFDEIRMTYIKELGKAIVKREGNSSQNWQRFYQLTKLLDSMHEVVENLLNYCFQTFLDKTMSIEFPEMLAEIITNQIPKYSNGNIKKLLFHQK
Assay: GR Fluorescence Polarization Assay (PolarScreen Glucocorticoid Receptor Competitor Assay, Red)
Conditions: IC50 class ranges, read-out: GR binding
Description: GR Fluorescence Polarization Assay
Fluorescence polarization assays were carried out using the PolarScreen™ Glucocorticoid Receptor Competitor Assay, Red from Invitrogen (P2893). The assay buffer was prepared according to the manufacturer's protocol and used to dilute the fluorescent glucocorticoid and GR. Compounds were prepared and serial diluted 1:4 in DMSO. Compound, fluorescent glucocorticoid and GR were added in a final volume of 20 μL and incubated overnight at 4° C. Fluorescent polarization was measured on the PerkinElmer Envision®.

| Compound | pIC50 |
| --- | --- |
| Cn1nc(-c2ccccn2)c2c1NCCSC2c1ccc(C(C)(C)O)cc1Cl (centres unmarked) | 5.00 to 6.00 |
| Cn1nc(-c2ccccn2)c2c1N(CC(=O)O)CCSC2c1ccc(Cl)cc1Cl (centres unmarked) | 5.00 to 6.00 |
| Cn1nc(-c2ccccn2)c2c1N(CC(N)=O)CCSC2c1ccc(Cl)cc1Cl (centres unmarked) | 5.00 to 6.00 |
| Cc1ncccc1NC(=O)c1ccc(C2SCCNc3c2c(-c2ccccn2)nn3C)c(Cl)c1 (centres unmarked) | > 7.00 |
| Cc1cccc(-c2nn(C)c3c2C(c2ccc(Cl)cc2C)SCCN3)n1 (centres unmarked) | 5.00 to 6.00 |
| Cn1nc(-c2ccc(C(=O)O)cn2)c2c1NCCSC2c1ccc(Cl)cc1Cl (centres unmarked) | 5.00 to 6.00 |
| Cc1ncccc1NC(=O)N1CCC(C2SCCNc3c2c(-c2ccccn2)nn3C)CC1 (centres unmarked) | < 5.00 |
| Cc1ncccc1C(=O)N1CCC(C2SCCNc3c2c(-c2ccccn2)nn3C)CC1 (centres unmarked) | < 5.00 |
| Cc1cc(Cl)ccc1C1SCCNc2c1c(-c1ccccn1)nn2C (single isomer, unassigned) | > 7.00 |
| Cc1cc(Cl)ccc1C1SCC(C)Nc2c1c(-c1ccccn1)nn2C (single isomer, unassigned) | > 7.00 |
| Cc1cc(C(=O)Nc2cccnc2C)ccc1C1SCC(CO)Nc2c1c(-c1ccccn1)nn2C (single isomer, unassigned) | 5.00 to 6.00 |
| Cc1ncccc1NC(=O)c1ccc([C@H]2SC[C@H](C)Nc3c2c(-c2ccccn2)nn3C)c(C#N)c1 (single isomer, unassigned) [M.18, 3-cyano-4-(1,7-dimethyl-3-(pyridin-2-yl)-4,6,7,8-tetrahydro-1H-pyrazolo[3,4-e][1,4]thiazepin-4-yl)-N-(2-methylpyridin-3-yl)benzamide] | 5.00 to 6.00 |
| Cc1ncccc1NC(=O)c1ccc([C@H]2SC[C@@H](C)Nc3c2c(-c2ccccn2)nn3C)c(C#N)c1 (single isomer, unassigned) [M.19, 3-cyano-4-(1,7-dimethyl-3-(pyridin-2-yl)-4,6,7,8-tetrahydro-1H-pyrazolo[3,4-e][1,4]thiazepin-4-yl)-N-(2-methylpyridin-3-yl)benzamide] | 5.00 to 6.00 |
| Cc1cc(C#N)ccc1C1SCCNc2c1c(-c1ccccn1)nn2C (single isomer, unassigned) [M.21, 3-methyl-4-(1-methyl-3-(pyridin-2-yl)-4,6,7,8-tetrahydro-1H-pyrazolo[3,4-e][1,4]thiazepin-4-yl)benzonitrile] | > 7.00 |
| CCn1nc(-c2ccccn2)c2c1N[C@@H](C)CS[C@@H]2c1ccc(C#CCO)cc1C (single isomer, unassigned) [M.25, 3-(4-(1-ethyl-7-methyl-3-(pyridin-2-yl)-4,6,7,8-tetrahydro-1H-pyrazolo[3,4-e][1,4]thiazepin-4-yl)-3-methylphenyl)prop-2-yn-1-ol] | 5.00 to 6.00 |
| CCn1nc(-c2ccccn2)c2c1N[C@H](C)CS[C@@H]2c1ccc(C#CCO)cc1C (single isomer, unassigned) [M.26, 3-(4-(1-ethyl-7-methyl-3-(pyridin-2-yl)-4,6,7,8-tetrahydro-1H-pyrazolo[3,4-e][1,4]thiazepin-4-yl)-3-methylphenyl)prop-2-yn-1-ol] | 5.00 to 6.00 |

| Compound | pIC50 |
| --- | --- |
| CCn1nc(-c2ccccn2)c2c1N[C@@H](C)CS[C@@H]2c1ccc(C#CC(C)(C)O)cc1C (single isomer, unassigned) [M.29, 4-(4-(1-ethyl-7-methyl-3-(pyridin-2-yl)-4,6,7,8-tetrahydro-1H-pyrazolo[3,4-e][1,4]thiazepin-4-yl)-3-methylphenyl)-2-methylbut-3-yn-2-ol] | 5.00 to 6.00 |
| CCn1nc(-c2ccccn2)c2c1N[C@H](C)CS[C@@H]2c1ccc(C#CC(C)(C)O)cc1C (single isomer, unassigned) [M.30, 4-(4-(1-ethyl-7-methyl-3-(pyridin-2-yl)-4,6,7,8-tetrahydro-1H-pyrazolo[3,4-e][1,4]thiazepin-4-yl)-3-methylphenyl)-2-methylbut-3-yn-2-ol] | 5.00 to 6.00 |
| CCn1nc(-c2ccccn2)c2c1N[C@@H](C)CS[C@@H]2c1ccc(CCCO)cc1C (single isomer, unassigned) [M.33, 3-(4-(1-ethyl-7-methyl-3-(pyridin-2-yl)-4,6,7,8-tetrahydro-1H-pyrazolo[3,4-e][1,4]thiazepin-4-yl)-3-methylphenyl)propan-1-ol] | 6.00 to 7.00 |
| CCn1nc(-c2ccccn2)c2c1N[C@H](C)CS[C@@H]2c1ccc(CCCO)cc1C (single isomer, unassigned) [M.34, 3-(4-(1-ethyl-7-methyl-3-(pyridin-2-yl)-4,6,7,8-tetrahydro-1H-pyrazolo[3,4-e][1,4]thiazepin-4-yl)-3-methylphenyl)propan-1-ol] | 6.00 to 7.00 |
| CCn1nc(-c2ccccn2)c2c1N[C@@H](C)CS[C@@H]2c1ccc(CCC(C)(C)O)cc1C (single isomer, unassigned) [M.37, 4-(4-(1-ethyl-7-methyl-3-(pyridin-2-yl)-4,6,7,8-tetrahydro-1H-pyrazolo[3,4-e][1,4]thiazepin-4-yl)-3-methylphenyl)-2-methylbutan-2-ol] | 6.00 to 7.00 |
| CCn1nc(-c2ccccn2)c2c1N[C@H](C)CS[C@@H]2c1ccc(CCC(C)(C)O)cc1C (single isomer, unassigned) [M.38, 4-(4-(1-ethyl-7-methyl-3-(pyridin-2-yl)-4,6,7,8-tetrahydro-1H-pyrazolo[3,4-e][1,4]thiazepin-4-yl)-3-methylphenyl)-2-methylbutan-2-ol] | 6.00 to 7.00 |
| Cc1cc(CCC(C)(C)O)ccc1[C@H]1SC[C@H](C)Nc2c1c(-c1ccccn1)nn2C (single isomer, unassigned) [M.41, 4-(4-(1,7-dimethyl-3-(pyridin-2-yl)-4,6,7,8-tetrahydro-1H-pyrazolo[3,4-e][1,4]thiazepin-4-yl)-3-methylphenyl)-2-methylbutan-2-ol] | 6.00 to 7.00 |
| Cc1cc(CCC(C)(C)O)ccc1[C@H]1SC[C@@H](C)Nc2c1c(-c1ccccn1)nn2C (single isomer, unassigned) [M.43, 4-(4-(1,7-dimethyl-3-(pyridin-2-yl)-4,6,7,8-tetrahydro-1H-pyrazolo[3,4-e][1,4]thiazepin-4-yl)-3-methylphenyl)-2-methylbutan-2-ol] | 5.00 to 6.00 |
| CCn1nc(-c2ccccn2)c2c1N[C@@H](C)CS[C@@H]2c1ccc(C(N)=O)cc1C (single isomer, unassigned) [M.45, 4-(1-ethyl-7-methyl-3-(pyridin-2-yl)-4,6,7,8-tetrahydro-1H-pyrazolo[3,4-e][1,4]thiazepin-4-yl)-3-methylbenzamide] | 5.00 to 6.00 |
| CCn1nc(-c2ccccn2)c2c1N[C@H](C)CS[C@@H]2c1ccc(C(N)=O)cc1C (single isomer, unassigned) [M.47, 4-(1-ethyl-7-methyl-3-(pyridin-2-yl)-4,6,7,8-tetrahydro-1H-pyrazolo[3,4-e][1,4]thiazepin-4-yl)-3-methylbenzamide] | 6.00 to 7.00 |
| Cc1cc(CCCO)ccc1[C@H]1SC[C@H](C)Nc2c1c(-c1ccccn1)nn2C (single isomer, unassigned) [M.49, 3-(4-(1,7-dimethyl-3-(pyridin-2-yl)-4,6,7,8-tetrahydro-1H-pyrazolo[3,4-e][1,4]thiazepin-4-yl)-3-methylphenyl)propan-1-ol] | 5.00 to 6.00 |
| Cc1cc(CCCO)ccc1[C@H]1SC[C@@H](C)Nc2c1c(-c1ccccn1)nn2C (single isomer, unassigned) [M.50, 3-(4-(1,7-dimethyl-3-(pyridin-2-yl)-4,6,7,8-tetrahydro-1H-pyrazolo[3,4-e][1,4]thiazepin-4-yl)-3-methylphenyl)propan-1-ol] | 5.00 to 6.00 |
| Cc1cc(C#CCCO)ccc1[C@H]1SC[C@H](C)Nc2c1c(-c1ccccn1)nn2C (single isomer, unassigned) [M.53, 4-(4-(1,7-dimethyl-3-(pyridin-2-yl)-4,6,7,8-tetrahydro-1H-pyrazolo[3,4-e][1,4]thiazepin-4-yl)-3-methylphenyl)but-3-yn-1-ol] | 6.00 to 7.00 |
| Cc1cc(C#CCCO)ccc1[C@H]1SC[C@@H](C)Nc2c1c(-c1ccccn1)nn2C (single isomer, unassigned) [M.56, 4-(4-(1,7-dimethyl-3-(pyridin-2-yl)-4,6,7,8-tetrahydro-1H-pyrazolo[3,4-e][1,4]thiazepin-4-yl)-3-methylphenyl)but-3-yn-1-ol] | 6.00 to 7.00 |
| Cc1cc(C(=O)Nc2cccnc2C)ccc1[C@H]1SC[C@H](C)Nc2c1c(-c1ccncn1)nn2C (single isomer, unassigned) [M.59, 4-(1,7-dimethyl-3-(pyrimidin-4-yl)-4,6,7,8-tetrahydro-1H-pyrazolo[3,4-e][1,4]thiazepin-4-yl)-3-methyl-N-(2-methylpyridin-3-yl)benzamide] | 5.00 to 6.00 |
| Cc1cc(C(=O)Nc2cccnc2C)ccc1[C@H]1SC[C@@H](C)Nc2c1c(-c1ccncn1)nn2C (single isomer, unassigned) [M.60, 4-(1,7-dimethyl-3-(pyrimidin-4-yl)-4,6,7,8-tetrahydro-1H-pyrazolo[3,4-e][1,4]thiazepin-4-yl)-3-methyl-N-(2-methylpyridin-3-yl)benzamide] | 5.00 to 6.00 |
